Holding throughout (format): biochemical
In test [1] the target is Human recombinant full length HDAC6 (Homo sapiens (Human), UniProt Q9UBN7). As to the kind of experiment: Test 4: HDAC6 assay. The following applies: Test 4; substrate 5 μM acetyl-Gly-Ala-Lys(acetyl)-AMC. In outline: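 Baculovirus-expressed full-length recombinant human HDAC6 with 5 μM acetyl-Gly-Ala-Lys(acetyl)-AMC substrate, developed with trypsin 15 min at room temperature.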

The target of the next test is Human recombinant HDAC4 (Homo sapiens (Human), UniProt P56524). In words: Test 2: HDAC4 assay (fluorogenic substrate, 5 μM acetyl-Gly-Ala-Lys(ε-trifluoroacetyl)-AMC). To be noted: Test 2 (values without asterisk). In outline: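 After the reaction, bovine trypsin (300 nM solution) was added for 15 min at RT to develop the signal; fluorescence read at 360/450 nm. No-enzyme background subtracted; IC50 from 4-parameter logistic fit of dose-response curves.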
Sequence of Human recombinant HDAC4 (P56524 2-1084): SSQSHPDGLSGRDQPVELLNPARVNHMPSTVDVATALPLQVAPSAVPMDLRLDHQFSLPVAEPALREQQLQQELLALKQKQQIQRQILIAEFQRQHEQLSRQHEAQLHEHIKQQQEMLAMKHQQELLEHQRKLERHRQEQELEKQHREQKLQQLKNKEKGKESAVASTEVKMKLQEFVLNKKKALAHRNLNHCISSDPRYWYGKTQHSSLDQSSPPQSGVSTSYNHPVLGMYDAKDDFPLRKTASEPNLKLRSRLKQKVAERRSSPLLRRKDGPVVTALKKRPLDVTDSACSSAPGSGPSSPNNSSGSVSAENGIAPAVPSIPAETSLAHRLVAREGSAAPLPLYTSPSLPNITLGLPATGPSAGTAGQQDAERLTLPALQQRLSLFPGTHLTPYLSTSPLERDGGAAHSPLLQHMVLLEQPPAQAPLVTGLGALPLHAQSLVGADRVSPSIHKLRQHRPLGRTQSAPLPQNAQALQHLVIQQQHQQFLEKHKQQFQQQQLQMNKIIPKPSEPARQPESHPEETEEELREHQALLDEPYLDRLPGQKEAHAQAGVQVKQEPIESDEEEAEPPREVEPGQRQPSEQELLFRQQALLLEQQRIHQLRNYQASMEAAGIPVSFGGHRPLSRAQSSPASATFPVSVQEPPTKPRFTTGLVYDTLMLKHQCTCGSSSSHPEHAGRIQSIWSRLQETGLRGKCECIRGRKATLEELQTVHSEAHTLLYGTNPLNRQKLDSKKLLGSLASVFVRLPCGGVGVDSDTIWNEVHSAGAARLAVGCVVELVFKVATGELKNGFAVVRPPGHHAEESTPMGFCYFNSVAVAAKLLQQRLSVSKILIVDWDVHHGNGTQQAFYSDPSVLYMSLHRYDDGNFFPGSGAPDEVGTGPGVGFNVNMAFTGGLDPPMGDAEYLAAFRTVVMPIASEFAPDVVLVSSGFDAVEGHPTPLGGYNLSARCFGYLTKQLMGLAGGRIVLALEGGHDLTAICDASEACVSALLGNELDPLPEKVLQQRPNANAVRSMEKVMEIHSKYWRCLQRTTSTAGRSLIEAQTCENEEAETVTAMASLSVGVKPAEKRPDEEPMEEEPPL

Test [2] deals with Human recombinant full length HDAC1 (Homo sapiens (Human), UniProt Q13547). As to the kind of experiment: Test 3: HDAC1 assay. The following applies: substrate 5 μM acetyl-Gly-Ala-Lys(acetyl)-AMC. In short, it runs like this: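 Baculovirus-expressed full-length human HDAC1 with 5 μM acetyl-Gly-Ala-Lys(acetyl)-AMC substrate, developed with trypsin 15 min at room temperature.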
Sequence of Human recombinant full length HDAC1 (Q13547 whole entry): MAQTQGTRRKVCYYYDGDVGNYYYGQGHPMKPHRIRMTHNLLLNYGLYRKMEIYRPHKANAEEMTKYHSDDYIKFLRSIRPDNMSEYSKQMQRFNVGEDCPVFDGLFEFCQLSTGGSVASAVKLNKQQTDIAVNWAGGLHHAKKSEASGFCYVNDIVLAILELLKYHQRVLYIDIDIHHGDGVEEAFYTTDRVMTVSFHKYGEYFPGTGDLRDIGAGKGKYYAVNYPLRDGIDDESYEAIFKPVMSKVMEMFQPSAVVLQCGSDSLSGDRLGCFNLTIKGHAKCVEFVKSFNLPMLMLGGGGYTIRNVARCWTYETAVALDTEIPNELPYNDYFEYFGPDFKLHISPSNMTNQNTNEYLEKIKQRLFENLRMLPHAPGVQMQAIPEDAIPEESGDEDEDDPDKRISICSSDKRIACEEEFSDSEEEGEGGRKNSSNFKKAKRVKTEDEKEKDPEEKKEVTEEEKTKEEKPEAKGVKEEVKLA

Sequence of Human recombinant full length HDAC6 (Q9UBN7 whole entry): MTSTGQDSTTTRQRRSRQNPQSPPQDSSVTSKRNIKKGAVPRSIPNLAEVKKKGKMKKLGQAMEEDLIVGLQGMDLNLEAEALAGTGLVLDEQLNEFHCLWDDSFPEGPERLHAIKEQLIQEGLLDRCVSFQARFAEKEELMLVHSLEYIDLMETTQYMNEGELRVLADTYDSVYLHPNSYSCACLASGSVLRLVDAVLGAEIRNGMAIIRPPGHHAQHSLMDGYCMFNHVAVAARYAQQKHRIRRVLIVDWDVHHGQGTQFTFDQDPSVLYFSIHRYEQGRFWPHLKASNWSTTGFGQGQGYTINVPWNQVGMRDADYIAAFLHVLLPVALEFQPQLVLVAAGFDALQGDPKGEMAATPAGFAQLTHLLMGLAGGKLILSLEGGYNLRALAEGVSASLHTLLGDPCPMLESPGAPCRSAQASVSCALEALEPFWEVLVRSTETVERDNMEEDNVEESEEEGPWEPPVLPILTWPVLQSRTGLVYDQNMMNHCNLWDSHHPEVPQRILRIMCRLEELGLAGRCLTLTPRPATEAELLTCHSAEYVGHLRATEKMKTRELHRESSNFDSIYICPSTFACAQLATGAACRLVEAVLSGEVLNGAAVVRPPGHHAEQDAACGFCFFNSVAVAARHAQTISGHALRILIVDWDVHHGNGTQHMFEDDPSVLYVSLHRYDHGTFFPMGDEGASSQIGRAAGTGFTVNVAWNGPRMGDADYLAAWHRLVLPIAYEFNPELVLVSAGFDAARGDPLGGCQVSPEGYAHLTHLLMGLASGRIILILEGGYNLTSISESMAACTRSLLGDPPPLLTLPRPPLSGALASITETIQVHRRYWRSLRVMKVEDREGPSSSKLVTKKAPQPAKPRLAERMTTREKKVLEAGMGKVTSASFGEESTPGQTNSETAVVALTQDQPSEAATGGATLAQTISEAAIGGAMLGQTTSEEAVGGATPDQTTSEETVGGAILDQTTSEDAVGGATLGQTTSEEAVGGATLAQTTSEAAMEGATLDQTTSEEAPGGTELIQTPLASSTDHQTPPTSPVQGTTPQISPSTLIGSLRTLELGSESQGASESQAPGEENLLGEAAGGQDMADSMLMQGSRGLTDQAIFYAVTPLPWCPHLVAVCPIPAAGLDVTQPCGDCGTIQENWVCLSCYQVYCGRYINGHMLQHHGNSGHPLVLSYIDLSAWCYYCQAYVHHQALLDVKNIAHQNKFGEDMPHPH

What is called IC50 is the point on the concentration scale where inhibition reaches its midpoint. On to `O=C(N[C@@H]1CCNC1)c1ccc(-c2noc(C(F)(F)F)n2)cc1` [Example 86, (R)—N-(pyyrrolidin-3-yl)-4-(5-(trifluoromethyl)-1,2,4-oxadiazol-3-yl)benzamide], for which the IC50 in test [1] was > 10000 nM; at Human recombinant HDAC4, 26 nM; in test [2], > 10000 nM.
Regarding `O=C(Cc1ccc(-c2noc(C(F)(F)F)n2)cc1)N1CCOCC1` [Example 9, 1-Morpholino-2-(4-(5-(trifluoromethyl)-1,2,4-oxadiazol-3-yl)phenyl)ethanone], the figures for the IC50 (in test [1]; at Human recombinant HDAC4; in test [2]) were 5500 nM, 850 nM and > 10000 nM, respectively.
On the same counts, the results for `CN(C)CCNS(=O)(=O)c1ccc(-c2noc(C(F)(F)F)n2)cc1` [Example 98, N-(2-(dimethylamino)ethyl)-4-(5-(trifluoromethyl)-1,2,4-oxadiazol-3-yl)benzenesulfonamide] are 6400 nM, 360 nM and > 10000 nM.
In the case of `CCCN(CC)C[C@@H](C)NC(=O)c1ccc(-c2noc(C(F)(F)F)n2)cc1F` [Example 146, (R)—N-(1-(ethyl(propyl)amino)propan-2-yl)-2-fluoro-4-(5-(trifluoromethyl)-1,2,4-oxadiazol-3-yl)benzamide], the results for the IC50 (in test [1]; on Human recombinant HDAC4; in test [2]) were 2400 nM, 1.6 nM and 5100 nM, respectively.
On the same counts, the results for `CNC(=O)Cc1ccc(-c2noc(C(F)(F)F)n2)cc1` [Example 3, N-methyl-2-[4-(5-trifluoromethyl-[1,2,4]oxadiazol-3-yl)-phenyl]-acetamide] are > 10000 nM, 1900 nM and > 10000 nM.
`CC(C)[C@@H](CN(C)C)NC(=O)c1ccc(-c2noc(C(F)(F)F)n2)cc1` [Example 83, (S)—N-(1-(dimethylamino)-3-methylbutan-2-yl)-4-(5-(trifluoromethyl)-1,2,4-oxadiazol-3-yl)benzamide]: the 50% inhibitory concentration (IC50) in test [1] is > 10000 nM; on Human recombinant HDAC4, 15 nM; in test [2], > 10000 nM.
On to `O=C(NCCNc1ccccc1)c1ccc(-c2noc(C(F)(F)F)n2)cc1` [Example 158, N-(2-(phenylamino)ethyl)-4-(5-(trifluoromethyl)-1,2,4-oxadiazol-3-yl)benzamide], for which the IC50 in test [1] turned out to be 1800 nM; at Human recombinant HDAC4 it was 360 nM; in test [2], 8800 nM.
The matching figures for `C[C@@H](CN(C)C)NC(=O)c1ccc(-c2noc(C(F)(F)F)n2)cc1` [Example 82, (S)—N-(1-(dimethylamino)propan-2-yl)-4-(5-(trifluoromethyl)-1,2,4-oxadiazol-3-yl)benzamide]: > 10000 nM, 120 nM and > 10000 nM.
The matching figures for `CNC(=O)CNC(=O)c1ccc(-c2noc(C(F)(F)F)n2)cc1` [Example 63, N-(2-(methylamino)-2-oxoethyl)-4-(5-(trifluoromethyl)-1,2,4-oxadiazol-3-yl)benzamide]: > 10000 nM, 780 nM and > 10000 nM.
`O=C(NC1CCCCC1)c1ccc(-c2noc(C(F)(F)F)n2)cc1` [Example 34, N-cyclohexyl-4-(5-(trifluoromethyl)-1,2,4-oxadiazol-3-yl)benzamide]: the half-maximal inhibitory concentration (IC50) in test [1] was > 10000 nM; on Human recombinant HDAC4, 750 nM; in test [2] it was > 10000 nM.
In the case of `O=S(=O)(Nc1cccc(Cl)c1)c1ccc(-c2noc(C(F)(F)F)n2)cc1` [Example 107, N-(3-chlorophenyl)-4-(5-(trifluoromethyl)-1,2,4-oxadiazol-3-yl)benzenesulfonamide], the results for the IC50 (in test [1]; on Human recombinant HDAC4; in test [2]) were 460 nM, 790 nM and 6200 nM, respectively.
Turning to `O=C(c1ccc(-c2noc(C(F)(F)F)n2)cc1)N1CCC(Cc2ccccc2)CC1` [Example 43, (4-benzylpiperidin-1-yl)(4-(5-(trifluoromethyl)-1,2,4-oxadiazol-3-yl)phenvyl)methanone], the IC50 is > 10000 nM in test [1], 290 nM at Human recombinant HDAC4 and > 10000 nM in test [2].
`CN1C(C)(C)CC(NC(=O)c2ccc(-c3noc(C(F)(F)F)n3)cc2)CC1(C)C` [Example 65, N-(1,2,2,6,6-pentamethylpiperidin-4-yl)-4-(5-(trifluoromethyl)-1,2,4-oxadiazol-3-yl)benzamide]: the IC50 was 4600 nM in test [1], 240 nM on Human recombinant HDAC4 and > 10000 nM in test [2].
The matching figures for `O=S(=O)(NCCCO)c1ccc(-c2noc(C(F)(F)F)n2)cc1` [Example 116, N-(3-hydroxypropyl)-4-(5-(trifluoromethyl)-1,2,4-oxadiazol-3-yl)benzenesulfonamide]: 3100 nM, 160 nM and > 10000 nM.
With `O=C(NC1CCOCC1)c1ccc(-c2noc(C(F)(F)F)n2)cc1` [Example 57, N-(tetrahydro-2H-pyran-4-yl)-4-(5-(trifluoromethyl)-1,2,4-oxadiazol-3-yl)benzamide], the IC50 is 6500 nM in test [1], 520 nM on Human recombinant HDAC4 and > 10000 nM in test [2].
For `CON(C)C(=O)Cc1ccc(-c2noc(C(F)(F)F)n2)cc1` [Example 11, N-methoxy-N-methyl-2-(4-(5-(trifluoromethyl)-1,2,4-oxadiazol-3-yl)phenvyl)acetamide], the IC50 was 8900 nM in test [1], 1100 nM at Human recombinant HDAC4 and > 10000 nM in test [2].
On the same counts, the results for `COCCNC(=O)Cc1ccc(-c2noc(C(F)(F)F)n2)cc1` [Example 7, N-(2-methoxyethyl)-2-(4-(5-(trifluoromethyl)-1,2,4-oxadiazol-3-yl)phenyl)acetamide] are 6900 nM, 960 nM and > 10000 nM.
The matching figures for `CC(CN(C)C)N(C)C(=O)c1ccc(-c2noc(C(F)(F)F)n2)cc1F` (stereo not drawn) [Example 144, N-(1-(dimethylamino)propan-2-yl)-2-fluoro-N-methyl-4-(5-(trifluoromethyl)-1,2,4-oxadiazol-3-yl)benzamide]: > 10000 nM, 180 nM and > 10000 nM.
On the same counts, the results for `O=C(c1ccc(-c2noc(C(F)(F)F)n2)cc1)N1CCC(O)C1` (stereo not drawn) [Example 54, (3-hydroxypyrrolidin-1-yl)(4-(5-(trifluoromethyl)-1,2,4-oxadiazol-3-yl)phenvyl)methanone] are > 10000 nM, 2000 nM and > 10000 nM.
In the case of `O=C(NC1CCC1)c1ccc(-c2noc(C(F)(F)F)n2)cc1` [Example 25, N-cyclobutyl-4-(5-(trifluoromethyl)-1,2,4-oxadiazol-3-yl)benzamide], the IC50 in test [1] was 6500 nM; on Human recombinant HDAC4, 470 nM; in test [2] it was > 10000 nM.
The matching figures for `CC(C)(C)OC(=O)N1CCN(C(=O)c2ccc(-c3noc(C(F)(F)F)n3)cc2)CC1` [Example 55, Tert-butyl 4-(4-(5-(trifluoromethyl)-1,2,4-oxadiazol-3-yl)benzoyl)piperazine-1-carboxylate]: > 10000 nM, 2800 nM and > 10000 nM.
With `CC(C)[C@H](CN(C)C)NC(=O)c1ccc(-c2noc(C(F)(F)F)n2)cc1F` [Example 89, (R)—N-(1-(dimethylamino)-3-methylbutan-2-yl)-2-fluoro-4-(5-(trifluoromethyl)-1,2,4-oxadiazol-3-yl)benzamide], the IC50 in test [1] was > 10000 nM; on Human recombinant HDAC4, 45 nM; in test [2], > 10000 nM.
For `CCCCN(C)C[C@@H](C)NC(=O)c1ccc(-c2noc(C(F)(F)F)n2)cc1F` [Example 151, (R)—N-(1-(butyl(methyl)amino)propan-2-yl)-2-fluoro-4-(5-(trifluoromethyl)-1,2,4-oxadiazol-3-yl)benzamide], the IC50 in test [1] was 2600 nM; on Human recombinant HDAC4, 1.8 nM; in test [2], 2700 nM.
In the case of `O=C(Nc1ccnc(O)c1)c1ccc(-c2noc(C(F)(F)F)n2)cc1` [Example 72, N-(2-hydroxypyridin-4-yl)-4-(5-(trifluoromethyl)-1,2,4-oxadiazol-3-yl)benzamide], the IC50 in test [1] is > 10000 nM; at Human recombinant HDAC4, 140 nM; in test [2] it was > 10000 nM.
As for `CN(C)CCCNS(=O)(=O)c1ccc(-c2noc(C(F)(F)F)n2)cc1` [Example 113, N-(3-(dimethylamino)propyl)-4-(5-(trifluoromethyl)-1,2,4-oxadiazol-3-yl)benzenesulfonamide], the IC50 in test [1] is 6200 nM; on Human recombinant HDAC4 it was 300 nM; in test [2], > 10000 nM.
Take `CC(C)NC(=O)c1ccc(-c2noc(C(F)(F)F)n2)cc1` [Example 20, N-isopropyl-4-(5-(trifluoromethyl)-1,2,4-oxadiazol-3-yl)benzamide]: the IC50 is > 10000 nM in test [1], 1000 nM on Human recombinant HDAC4 and > 10000 nM in test [2].
For the compound `C[C@H](CO)NC(=O)c1ccc(-c2noc(C(F)(F)F)n2)cc1` [Example 28, (R)—N-(1-hydroxyypropan-2-yl)-4-(5-(trifluoromethyl)-1,2,4-oxadiazol-3-yl)benzamide], the values for the IC50 (in test [1]; at Human recombinant HDAC4; in test [2]) were 7700 nM, 350 nM and > 10000 nM, respectively.
For `CN(C)C[C@H](Cc1ccccc1)NC(=O)c1ccc(-c2noc(C(F)(F)F)n2)cc1F` [Example 117, (S)—N-(1-(dimethylamino)-3-phenylpropan-2-yl)-2-fluoro-4-(5-(trifluoromethyl)-1,2,4-oxadiazol-3-yl)benzamide], the values for the IC50 (in test [1]; at Human recombinant HDAC4; in test [2]) were 1500 nM, 110 nM and 6700 nM, respectively.

The values above are taken from patent publication US9056843B2, “Trifluoromethyl-oxadiazole derivatives and their use in the treatment of disease” (NOVARTIS AG, priority 2011, dated 2015).
